Test results: patent US9572783B1, “Use of xanthophylls for the treatment of cancers” (priority 2015, dated 2017)

Tests used:
Assay type in all cases: cell-based
[1] = test system: Mouse adrenocortical Y1 cell line; assay: MTT assay of Y1 cell viability; conditions: Y1 cells, 40 μM astaxanthin, 48 hours
Procedure: (§1) Mouse adrenocortical Y1 cell line (ATCC, ATCC® CCL-79™) was grown in Dulbecco's modified Eagle medium (DMEM)-F12 supplemented with 10% fetal bovine serum at 37° C. in a humidified atmosphere at 5% CO2.
(§2) Astaxanthin (Model NO: ATP-9601A; Yuan Yu Bio-Tech (Taiwan), Co., Ltd) was dissolved in dimethyl sulfoxide (DMSO) at concentration of 20 mM as stock solution.
(§3) The Y1 cells were incubated with DMSO or 40 μM of astaxanthin for 1, 2 or 3 days before analysis.
(§4) Cells were washed with PBS after the treatment, followed by addition of 1 ml MTT (3-(4,5-cimethylthiazol-2-yl)-2,5-diphenyl tetrazolium bromide) solution (2 mg/ml in PBS) in each well. After incubation for 3 hours at 37° C., 2 ml of DMSO was added and cells were incubated in the dark for 30 minutes. Absorbance was measured at the wavelength of 570 nm (OD570).

[2] = test system: Human U2OS cell line; assay: U2OS cell number count after astaxanthin treatment; conditions: 100, 200 or 400 μM astaxanthin, 72 hours
Procedure: Human U2OS (ATCC, ATCC® HTB-96™) cell line was grown in DMEM medium supplemented with 10% fetal bovine serum at 37° C. in a humidified atmosphere at 5% CO2.
(§5) Astaxanthin was dissolved in dimethyl sulfoxide (DMSO) at concentration of 20 mM as stock solution.
The U2OS cell line was treated with DMSO or 100, 200 or 400 μM of astaxanthin for 72 hours and cell numbers were counted.

[3] = test system: Human U87MG cell line; assay: MTT assay of U87MG cell viability; conditions: DMSO or different concentrations of astaxanthin
Procedure: as §4
(§6) Human U87MG (ATCC, ATCC® HTB-14™) cell line was grown in DMEM medium supplemented with 10% fetal bovine serum at 37° C. in a humidified atmosphere at 5% CO2. M059K (ATCC, ATCC® CRL-2365™) and M059J (ATCC, ATCC® CRL-2366™) cell lines were grown in Dulbecco's modified Eagle medium (DMEM)-F12 supplemented with 10% fetal bovine serum at 37° C. in a humidified atmosphere at 5% CO2.
as §5
(§7) The U87MG, M059K, and M059J cell lines were treated with DMSO or 100, 200 or 400 μM of astaxanthin for 24 hours or 48 hours and cell numbers were counted.

[4] = test system: Mouse adrenocortical Y1 cell line; assay: Y1 cell number count after astaxanthin treatment (growth curve); conditions: 40 μM astaxanthin, 1, 2 or 3 days of treatment
Procedure: as §1, §2, §3

[5] = test system: M059K cell line; assay: M059K cell number count after astaxanthin treatment; conditions: 100, 200 or 400 μM astaxanthin, 24 hours or 48 hours
Procedure: as §6, §5, §7

[6] = test system: Human U87MG cell line; assay: U87MG cell number count after astaxanthin treatment; conditions: 100, 200 or 400 μM astaxanthin, 24 hours or 48 hours
Procedure: as §6, §5, §7

## CC1=C(/C=C/C(C)=C/C=C/C(C)=C/C=C/C=C(C)/C=C/C=C(C)/C=C/C2=C(C)C(=O)[C@@H](O)CC2(C)C)C(C)(C)C[C@H](O)C1=O [astaxanthin, Astaxanthin]
[1]
  OD570 (MTT, cell viability) compared with DMSO treated group: reduced
[2]
  U2OS cell growth (cell number): inhibited U2OS cell growth in a dose-dependent manner
[3]
  viability of U87MG cells (MTT): reduced
[4]
  number of Y1 cells compared with control (DMSO treated) group: reduced
[5]
  M059K cell growth (cell number): also inhibited M059K
[6]
  U87MG cell growth (cell number): inhibited U87MG cell growth in a dose-dependent and time-dependent manner
